What was measured:
Type in all cases: in vivo
maize - Zea mays = assay: Greenhouse cold temperature stress test on maize after spray treatment; details: cold temperature stress 8° C./1° C. (day/night) one week, 7 days recovery, spray 600 l/ha, damage vs untreated stressed plants
Description: (§1) Oilseed rape, maize and barley are cultivated on sandy clay under greenhouse conditions. After 2-3 weeks, after BBCH10 to BBCH13 has been reached, the plants are each treated with bixafen at application rates of from 250 g/ha and 100 g/h. The spray volume is adjusted to 600 l/ha. The plants are then exposed to drought stress by heating the test chamber to 26° C./18° C. (day/night) or cold temperature stress brought about by cooling the test chamber to 8° C./1° C. (day/night). After one week, the test chamber is readjusted to normal temperatures and the test plants are then allowed to recover for 7 days. Evaluation of the compounds tested is carried out by comparison of the treated plants with the untreated plants, each of which was exposed to the stress factors, using the formula below: [formula] EFF: efficiency (%) SWug: damage to untreated control plants SWbg: damage to treated plants

barley - Hordeum vulgare = assay: Greenhouse drought stress test on barley after spray treatment; details: HORVS (barley), drought stress 26° C./18° C. (day/night) one week, 7 days recovery; 100 g of a.s./ha, spray 600 l/ha; damage vs untreated stressed plants
Description: as §1

[1] = tested on: oilseed rape - Brassica napus; assay: Greenhouse drought stress test on oilseed rape after spray treatment; details: BRSNS (oilseed rape), drought stress 26° C./18° C. (day/night) one week, 7 days recovery; 250 g of a.s./ha, spray 600 l/ha; damage vs untreated stressed plants
Description: as §1

For `Cn1cc(C(=O)Nc2ccc(F)cc2-c2ccc(Cl)c(Cl)c2)c(C(F)F)n1` [bixafen, N-(3′,4′-dichloro-5-fluoro-1,1′-biphenyl-2-yl)-3-(difluoromethyl)-1-methyl-1H-pyrazole-4-carboxamide], which Efficiency (maize - Zea mays; 100 g of a.s./ha) is on record?
Its Efficiency is 21%.

And the Efficiency (maize - Zea mays; 250 g of a.s./ha)?
The Efficiency was 47%.

What about the Efficiency (barley - Hordeum vulgare) of the same compound?
Its Efficiency is 22%.

And the Efficiency [1]?
The Efficiency was 15%.

Source: US20100324101A1, “Use of Succinate Dehydrogenase Inhibitors for Increasing the Resistance of Plants or Parts of Plants to Abiotic Stress” (Bayer CropScience AG, priority 2009, published 2010)
